Source: patent US12251383B2, “Methods and compositions for KRAS inhibitors” (The Board of Regents of the University of Texas System, priority 2019, dated 2025)
Entries after “also recorded” stand apart in the source; their conditions may differ.

Columns and labels:
[1] = system: KRAS^G12D; test: Cell signaling (Western) in BHK cells expressing KRAS G12D; format: cell-based, hamster; conditions: BHK KRAS^G12D
Experimental: (§1) Cell signaling. The inhibitory potential of compounds was tested in monoclonal Baby Hamster Kidney (BHK) cell lines stably expressing monomeric green fluorescence protein (mGFP)-tagged KRAS^G12D, K-Ras^G12V and HRAS^G12V. Cells were cultured in Dulbecco's Modified Eagle Medium (DMEM, Hyclone) supplemented with 10% v/v bovine calf serum and incubated with compound or vehicle (DMSO) for 3 h without serum. Cells were then harvested in lysis buffer (50 mM Tris (pH 7.5), 75 mM NaCl, 25 mM NaF, 5 mM MgCl2, 5 mM EGTA, 1 mM dithiothreitol, 100 μM NaVO4, 1% Nonidet P40 plus protease inhibitors) and subjected to Western analysis controlling protein loading by BCA (bicinchoninic acid) assay. Lysates were resolved with Bio-Rad polyacrylamide TGX 10% gel, transferred to polyvinylidene fluoride (PVDF) membrane and immunoblotted using pan-AKT (2920S), GFP (2956S), pAKT^S473 (4060L), p-cRaf^S338 (9427S), p-ERK^T202/Y204 (4370L), ERK1/2 (4695S) or β-actin antibodies (Cell Signaling Technology). IC50 values were calculated with Prism 4-parameter fit.
Cell signaling assays identify compound 11 as a promising initial hit Western analysis was used to quickly assess the potential impact of the predicted hits on MAPK signaling, a major pathway mediated by KRAS. Specifically, ERK1/2 phosphorylation levels (p-ERK) were monitored in BHK cells stably expressing KRAS^G12D treated with vehicle (DMSO), the MEK inhibitor […] (U) or compound at four different concentrations (1-100 μM). […] Compounds 9 and 11 (structures for compounds 1-11 are provided in Appendix I, attached hereto), on the other hand, decreased p-ERK levels at concentrations ≥50 μM and ≥5 μM, respectively. To verify the latter observation, the experiments were repeated in an expanded concentration range starting from 0.1 μM. […] However, compound 9 (see Appendix I, attached hereto) increased p-ERK levels at 25 and 38 μM in contrast to the decrease observed at higher concentrations (FIG. S1B; see Appendix I, attached hereto).

[2] = target: T1, KRAS^G12D-cRaf interaction (Homo sapiens, UniProt P01116, G12D); test: FLIM-FRET of GFP-KRAS G12D and RFP-cRaf in BHK cells; format: cell-based, hamster; conditions: 2 μM
T1 construct: expressed in transfected cells; host or cells: BHK (baby hamster kidney) cells, transient expression
Text: [formula] where P1 is polarization of free KRAS, P2 is polarization of Raf-bound KRAS, c is the total concentration of KRAS, and x the total concentration of Raf^RBD. (FIG. 2B) Amount of GFP-KRAS^G12D pulled down by GST-Raf^RBD after treatment of cell lysates with compound at the concentrations indicated (representative Westerns are shown at the top). The RBD sequence length was 1-149 and 51-131 in the fluorescence polarization and pull-down assays, respectively. (FIG. 2C) GFP fluorescence lifetime from FLIM-FRET using cells expressing GFP-KRAS^G12D alone or with RFP-Raf, with or without treatment by 1 μM compound 11. Data are shown as mean±S.E; significance estimated by one-way analysis of variance.
Fluorescence lifetime imaging (FLIM)-fluorescence resonance energy transfer (FRET). FLIM-FRET experiments were carried out using a lifetime fluorescence imaging attachment (Lambert Instruments, The Netherlands) on an inverted microscope (43). BHK cells transiently expressing mGFP-tagged KRAS^G12D (donor), alone or with mRFP-tagged cRaf^WT (acceptor) (using 1:5 ratio), were prepared as indicated in each experiment. The samples were excited using a sinusoidally modulated 3 W 470 nm light-emitting diode at 40 MHz under epi-illumination. Fluorescein was used as a lifetime reference standard. […] The phase and modulation were determined from 12 phase settings using the manufacturer's software. […]

[3] = system: lung cancer cells; test: Cell proliferation (CyQuant), lung cancer cells overall; format: cell-based
Text: (FIG. 5A) Chemical structure of compounds 12, an analogue of 11 lacking the terminal methyl alcohol functional group. (FIG. 5B) Predicted binding pose of compound 12. (FIG. 5C) p-ERK and p-cRaf levels in BHK cells expressing KRAS^G12D treated with indicated concentrations of compound 12 or vehicle. (FIG. 5D) Proliferation profile of lung cancer cells upon treatment with increasing concentration of compound 12, monitored by a CyQuant assay. Data are averages over three independent experiments and error bars represent standard error. (FIG. 5E) GFP fluorescence lifetime from FLIM-FRET using cells expressing GFP-KRAS^G12D alone or together with RFP-cRaf, with or without treatment with 2 μM compound 12.
Cell proliferation. Potential effect of the ligands on cancer cell proliferation was tested in three lung cancer cells: SKLU-1, H1975 and H522. Cells were plated at ˜1,000 cell per well in a 96-well plate and maintained in full serum media with or without compound at 37° C. for 72 h changing the media with the compound every 24 h. Media with compound was prepared by serial dilution at concentrations indicated. Then cells were washed with PBS and frozen at −80° C. for a minimum of 24 h. Plates were thawed and CyQuant™ dye (in lysis buffer provided in the CyQuant™ cell proliferation assay kit, Invitrogen™) was added, and after a five-minute incubation, fluorescence (excitation: 480 nm emission: 520 nm) was measured with a Tecan Infinite M200 plate reader.

[4] = Solubility in DMSO and common solvents; format: physicochemical; conditions: DMSO
[5] = system: HRAS^G12V; test: Cell signaling (Western) in BHK cells expressing HRAS G12V; format: cell-based, hamster; conditions: 10 μM
Experimental: as §1

Cc1nn2c(N3CCN(C)CC3)cc(-c3ccccc3)nc2c1-c1ccccc1 [Compound 12]
concentration at which p-ERK levels are decreased [1]: 2 µM | effect on p-cRaf levels [1]: no effect | KRAS-Raf interaction (FLIM-FRET) [2]: does not affect | inhibition of cell proliferation relative to compound 11 [3]: somewhat less effective | selectivity between KRAS mutant and KRAS^WT lung cancer cells [3]: better selectively profile | solubility [4]: less soluble; also recorded: solubility issues

N#CC(=C(/N)Sc1ccccc1N)/C(C#N)=C(\N)Sc1ccccc1N [Compound U0126, reference compound]
effect on MAPK signaling [5]: almost completely abolished
